We go through 9 molecules from ChEMBL document CHEMBL1149958, “Conformationally restricted piperidinyl benzamides as 5-HT3 receptor antagonists” (Bioorg Med Chem Lett, 1992).

The term pKa denotes the pH at which an ionisable group is half protonated. A higher pKa goes with a weaker acid or stronger base.

Where only a bound is given, the exact number is not on record here.

One data set relates to Rattus norvegicus. In words: Antagonist potency towards serotonin 5-HT3 receptor was determined by inhibition of 5-HT induced bradycardia (Bezold-Jarisch reflex) in anaesthetized rat. Particulars: for ED50: Rattus norvegicus, read-out: ID50 (the source's name). Type of data set: functional.
Data set [1] is described as follows: pKA value was determined. It counts as physicochemical.

`COc1cc(N)c(Cl)cc1C(=O)NC1CCN2C(C)CCC2C1` (stereo unspecified): the ED50 in the data set with Rattus norvegicus worked out at 0.012 mg/kg.
On the same count and under the same terms, the result for `COc1cc(N)c(Cl)cc1C(=O)NC1CC(C)N2CCCC2C1` (stereo unspecified) reads 0.29 mg/kg.
Regarding `COc1cc(N)c(Cl)cc1C(=O)NC1CCN2CCCC2C1` (stereo in doubt; 4a), the ID50 with Rattus norvegicus is greater than 1 mg/kg.
On to `COc1cc(N)c(Cl)cc1C(=O)NC1CCN2C(C)CCCC2C1` (stereo unspecified) [BRL-20627], for which the pKa in data set [1] is 9.2. Also, in the data set on Rattus norvegicus, the ED50 was determined as 0.225 mg/kg.
Take `COc1cc(N)c(Cl)cc1C(=O)NC1CCN2C(C)COCC2C1` (stereo unspecified): the ED50 with Rattus norvegicus was found to be 0.0095 mg/kg.
For the molecule `CCN(CC)CCNC(=O)c1cc(Cl)c(N)cc1OC` [METOCLOPRAMIDE], the ED50 with Rattus norvegicus was 0.5 mg/kg.
`COc1cc(N)c(Cl)cc1C(=O)NC1CCN2CCCC2C1` (stereo in doubt; 4b) registered an ID50 with Rattus norvegicus of 0.024 mg/kg.
For the molecule `CN1[C@@H]2CC[C@H]1C[C@@H](OC(=O)c1c[nH]c3ccccc13)C2` [TROPISETRON], in the data set on Rattus norvegicus, the ED50 came to 0.0014 mg/kg.
In turn, `COc1cc(N)c(Cl)cc1C(=O)NC1CCN2CCOCC2C1` (stereo unspecified) showed a pKa in data set [1] of 6.3. Further, the ED50 with Rattus norvegicus worked out at 0.017 mg/kg.
